Values quoted from earlier work in patent US20240342250A1, “COMPOSITION AND METHODS OF TREATMENT USING […]-ENHANCED SUPPLEMENTATION” (Xygenyx Inc., priority 2023, published 2024).
Non-standard residues stand in square brackets, D forms with d. Residues, ends and D or L forms follow the SMILES beside them. Cit = NC(=O)NCCC[C@H](N)C(=O)O

Tests used:
[1] = system: symptoms of depression; details: patients who did not respond to traditional antidepressant medications
[2] = system: memory recall and cognitive function; details: compared to placebo; 34 pairs of matched adolescent students
[3] = system: skin
[4] = system: wide dynamic range neurons in the ventroposterolateral nucleus of the thalamus; details: is believed
[5] = generally considered safe and well-tolerated at doses of up to
[6] = system: skin; details: topical formulations; within four weeks of treatment
[7] = system: skin; details: topical, concentrations 0.5-5%
[8] = system: systemic inflammation, oxidative status, and liver cell metabolism associated with rheumatoid arthritis; details: arthritic subjects
[9] = compared to alpha-tocopherol = 1.0
[10] = even when dietary intake occurs in equal portions
[11] = system: markers of inflammation in the blood; details: individuals with metabolic syndrome
[12] = in vivo

CN1c2c([nH]c(N)nc2=O)NCC1CNc1ccc(C(=O)N[C@@H](CCC(=O)O)C(=O)O)cc1 (stereo partly shown) [5-MTHF, 5-methyltetrahydrofolate]
symptoms of depression [1]: improved symptoms of depression

C/C=C1\[C@H]2C=C(C)C[C@]1(N)c1ccc(=O)[nH]c1C2 [Huperzine A]
memory recall and cognitive function [2]: significant improvements in memory recall and cognitive function

CC(C)[C@@H]1CC[C@@H](C)C[C@H]1O [Menthol]
increase of transdermal drug uptake, factor [3]: ≥ 10

CCCCCc1cc(O)c2c(c1)OC(C)(C)C1CCC(C)=CC21 (stereo not shown) [THC, Δ-9-tetrahydrocannabinol]
potency in mediating pain relative to morphine [4]: ten times more powerful than morphine

CCNC(=O)CC[C@H](N)C(=O)O [Theanine]
safe and well-tolerated dose [5]: up to 400 mg per day

CC[C@H](C)[C@H](NC(=O)[C@H](CC(=O)O)NC(=O)[C@@H](N)CCCCN)C(=O)N[C@@H](CCCNC(N)=O)C(N)=O [Tripeptide-10 citrulline] (H-KDI[Cit]-NH2)
improvement of suppleness [6]: ≤ 54%

C=CCCCCCCCCC(=O)N[C@@H](Cc1ccccc1)C(=O)O [UP, Undecylenoyl phenylalanine]
time to skin lightening effects [7]: ≥ 7 days

CC12CCC(CC1)C(C)(C)O2 [eucalyptol, Eucalyptol]
increase of transdermal drug uptake, factor [3]: more than 10

Cc1c(C)c2c(c(C)c1O)CC[C@@](C)(CCC[C@H](C)CCC[C@H](C)CCCC(C)C)O2 [α-tocopherol]
progression of age-related macular degeneration (400-500 IU in combination with 10-20 mg beta-carotene and 400-500 mg vitamin C): dramatically reduce the progression of age-related macular degeneration
functional health of sperm (800-900 IU/day): improve functional health of sperm
blood plasma concentration of F2-isoprostane (1600-3200 IU/day): significantly lower blood plasma concentration of F2-isoprostane
reduction of risk of coronary disease (dietary supplementation, doses up to 400 IU/day): up to 34%
reduction of risk of developing neurodegenerative diseases such as Alzheimer's Syndrome or dementia (dietary supplementation, doses up to 400 IU/day, controlled trials): ≤ 24%
reduction in the development of age-related cataracts (in combination with 10-20 mg beta-carotene and 400-500 mg vitamin C): 23%

C=C1CC/C=C(\C)CC[C@@H]2[C@@H]1CC2(C)C [β-caryophyllene]
protein carbonyl groups and myeloperoxidase activity in liver and plasma [8]: eliminated increases of protein carbonyl groups and myeloperoxidase activity
swelling of joints and lymph nodes, circulating and articular leukocytes [8]: reduced swelling of joints and lymph nodes as well as the number of circulating and articular leukocytes

Cc1cc(O)c(C)c2c1O[C@](C)(CCC[C@H](C)CCC[C@H](C)CCCC(C)C)CC2 [β-tocopherol]
relative biological activity [9]: 0.5

Cc1c(O)cc2c(c1C)O[C@](C)(CCC[C@H](C)CCC[C@H](C)CCCC(C)C)CC2 [γ-tocopherol]
relative biological activity [9]: 0.1
concentration in vivo relative to alpha-tocopherol [10]: roughly 10%

Cc1cc(O)cc2c1O[C@](C)(CCC[C@H](C)CCC[C@H](C)CCCC(C)C)CC2 [δ-tocopherol]
relative biological activity [9]: 0.03
markers of inflammation in the blood [11]: reduced markers of inflammation in the blood

HGH: hormone comprising a peptide chain that is synthesized in the pituitary gland
biological half-life [12]: 10-20 minutes
